Test results reported in patent EP0613879A1, “PHELLODENDRINE ANALOGS AND ALLERGY TYPE IV SUPPRESSOR CONTAINING THE SAME AS ACTIVE INGREDIENT” (TSUMURA & CO., priority 1991, dated 1992).

Key:
ICR mice = details: mouse, in vivo, po
Description: Compounds obtained in Synthetic Examples 18, 35, and 66 were orally administered to ICR mice (each dose to each group consisting of 10 mice).

[1] = test system: sole reaction in sheep red blood cells (SRBC); test: sole reaction to sheep red blood cells (SRBC), foot volume increase 24 hours after induction; type: in vivo, BALB/c mice; details: 3.0 x 10⁻⁴ mol/kg orally for four days after the sensitization
Description: The actions of the compounds of the present invention in the course of creation of the cellular immunity were studied using the sole reaction in sheep red blood cells (SRBC).
BALB/c mice (female, age: 7 weeks) were sensitized by injecting 0.2 ml of SRBC adjusted to 2.5 x 10⁵ cells/ml with a physiological saline solution into caudal vein. Four days after the sensitization, the volume of the right foot of the mice was measured. Then, 0.025 ml of SRBC from the same lot as above adjusted to 4 x 10⁹ cells/ml was subcutaneously injected into the right sole to induce a reaction. 24 hours after the reaction has been induced, the intensity of the reaction was determined by subtracting the right foot volume before the reaction from the volume after the reaction. The test compounds at a concentration of 3.0 x 10⁻⁴ mol/kg were orally administered for four days after the sensitization.

[2] = against Control 2 (5% ethanol-olive oil)
[3] = against Control 3 (Purified water)

SMILES | dose up to which no death was caused (ICR mice) | Rate of suppression (%) [1, 2] [%] | further results
COc1ccc(CC(=O)NCCc2ccc(O)c(OC)c2)cc1O [Synthetic Example 18, N-(4-hydroxy-3-methoxyphenetyl)-3-hydroxy-4-methoxyphenylacetamide] | ≤ 1,000 mg/kg | – | –
CN(Cc1ccc(O)cc1)Cc1cccc(O)c1 [Synthetic Example 30, N-(4-hydroxybenzyl)-N-methyl-3-hydroxybenzylamine] | – | 33.2 | –
CCN(Cc1ccc(O)cc1)Cc1cccc(O)c1 [Synthetic Example 61, N-ethyl-N-(4-hydroxybenzyl)-3-hydroxybenzylamine] | – | 21.8 | –
COc1ccc(CNCc2ccc(OC)cc2)cc1.O=C(O)/C=C\C(=O)O [Synthetic Example 46, N,N-bis(4-methoxybenzyl)amine maleate] | – | – | Rate of suppression (%) ([1]; against Control 1 (0.5% gum arabic-purified water)): 38.1%
Oc1cccc(CNCc2cccc(O)c2)c1 [Synthetic Example 7, N,N-bis(3-hydroxybenzyl)amine] | – | – | Rate of suppression (%) [1, 3]: 54.4%
COc1ccc(CCNCCc2ccc(O)c(OC)c2)cc1O [Synthetic Example 66, N-(4-hydroxy-3-methoxyphenetyl)-3-hydroxy-4-methoxyphenetylamine] | ≤ 1,000 mg/kg | – | –
COc1ccc(CN(C)Cc2cccc(OC)c2)cc1 [Synthetic Example 27, N-(4-methoxybenzyl)-N-methyl-3-methoxybenzylamine] | – | – | Rate of suppression (%) [1, 3]: 32.8%
CN(Cc1ccc(O)cc1)C(=O)c1cccc(O)c1 [Synthetic Example 25, N-(4-hydroxybenzyl)-N-methyl-3-hydroxybenzamide] | – | 26.7 | –
COc1ccc(CN(C)Cc2ccc(O)c(OC)c2)cc1O [Synthetic Example 35, N-(4-hydroxy-3-methoxybenzyl)-N-methyl-3-hydroxy-4-methoxybenzylamine] | ≤ 1,000 mg/kg | – | –
